According to patent publication US6849438B1, “Isolated and purified human soluble guanylyl cyclase α1/β1 (hsgcα1/β1)” (Vasopharm Biotech GmbH, priority 1998, dated 2005):

Biological target: T1, recombinant human sGC (rhsGCα1/rhsGCβ1) in intact Sf9 cells (Homo sapiens, UniProt Q02108+Q02153)
T1 construct: Thus, the complete hsGCα1 cDNA is under the control of the polyhedrin promotor (PHP); Thus, the complete hsGCβ1 cDNA is under the control of the polyhedrin promotor (PHP); expressed in transfected cells; host or cells: Sf9 insect cells coinfected with recombinant baculoviruses (pVL1393-derived)
T1 sequence (Q02108 1-690): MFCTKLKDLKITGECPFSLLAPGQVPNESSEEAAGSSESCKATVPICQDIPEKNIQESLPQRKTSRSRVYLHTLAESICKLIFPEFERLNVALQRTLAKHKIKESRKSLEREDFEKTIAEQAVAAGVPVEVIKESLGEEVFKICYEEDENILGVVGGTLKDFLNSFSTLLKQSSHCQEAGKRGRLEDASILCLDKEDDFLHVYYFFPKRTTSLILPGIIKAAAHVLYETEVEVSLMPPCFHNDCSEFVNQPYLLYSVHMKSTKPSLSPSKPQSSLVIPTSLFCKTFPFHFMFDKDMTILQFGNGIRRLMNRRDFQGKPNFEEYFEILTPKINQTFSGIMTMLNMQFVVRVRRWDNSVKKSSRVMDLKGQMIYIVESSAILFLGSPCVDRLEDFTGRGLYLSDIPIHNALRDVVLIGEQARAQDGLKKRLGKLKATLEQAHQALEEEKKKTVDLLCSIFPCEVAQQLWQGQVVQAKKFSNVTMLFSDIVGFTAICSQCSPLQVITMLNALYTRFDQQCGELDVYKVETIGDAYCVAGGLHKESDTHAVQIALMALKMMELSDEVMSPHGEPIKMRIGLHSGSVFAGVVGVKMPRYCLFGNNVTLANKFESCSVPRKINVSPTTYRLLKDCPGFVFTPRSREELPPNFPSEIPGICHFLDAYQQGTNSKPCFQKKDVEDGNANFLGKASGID
T1 sequence (Q02153 1-619): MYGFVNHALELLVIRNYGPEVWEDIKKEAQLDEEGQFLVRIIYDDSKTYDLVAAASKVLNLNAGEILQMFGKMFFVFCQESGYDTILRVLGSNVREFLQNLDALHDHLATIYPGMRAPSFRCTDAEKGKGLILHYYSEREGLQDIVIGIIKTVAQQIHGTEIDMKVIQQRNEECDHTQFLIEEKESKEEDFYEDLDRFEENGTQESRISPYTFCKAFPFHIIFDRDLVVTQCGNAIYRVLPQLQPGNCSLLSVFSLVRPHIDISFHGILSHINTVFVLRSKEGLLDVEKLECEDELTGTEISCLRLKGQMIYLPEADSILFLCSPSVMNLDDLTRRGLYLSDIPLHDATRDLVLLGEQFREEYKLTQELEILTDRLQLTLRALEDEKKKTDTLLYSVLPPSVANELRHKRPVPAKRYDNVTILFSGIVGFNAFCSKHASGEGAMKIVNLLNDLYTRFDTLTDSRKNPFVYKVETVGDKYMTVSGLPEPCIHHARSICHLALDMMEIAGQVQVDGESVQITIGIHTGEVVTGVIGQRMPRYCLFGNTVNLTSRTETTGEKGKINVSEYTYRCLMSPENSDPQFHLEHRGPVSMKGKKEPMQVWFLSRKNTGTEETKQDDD
Experiment: cGMP content (RIA) in intact Sf9 cells coexpressing rhsGCα1 and rhsGCβ1
Format: cell-based
Protocol: For the production of functional heterodimeric human sGC, rhsGCα1 and rhsGCβ1 were coexpressed in Sf9 cells with recombinant baculoviruses. For this, Sf9 monolayer cultures [2.5×10^6 cells/dish, Ø 90 mm; supplements see example 2] were coinfected with a M.O.I. (multiplicity of infection) of 2 pfu/cell of each recombinant baculovirus (hsGCα1 and hsGCβ1; both without GST-tag) and cultivated for 48 hours at 27° C. The basal as well as the NO-stimulated activity of the sGC in the cells was determined by measurement of the cGMP content in the cells in the presence of the phosphodiesterase inhibitor IBMX (3-isobutyl-1-methylxanthine).
For the determination of the cGMP content, the culture media was replaced by Krebs-Ringer-buffer (KRB; […]; 4.74 mM KCI; 2.54 mM CaCl2; 1.19 mM MgSO4; 1.19 mM KH2PO4; 25 mM NaHCO3; 10 mM HEPES; pH 7.4; 0.1% BSA) which, in addition, contained 1 mM IBMX. The cells were incubated for one hour at 27° C. Then the cells were washed with ice-cold KRP and harvested in 1 ml ice-cold ethanol (80%) with a cell scraper. The cells were homogenized by sonication [see Example 3] and centrifuged at 20,000×g for 20 minutes. The supernatant was dried in a speed-vac and the residue resuspended in 25 mM TEA, pH 7.8. The cGMP content was determined by means of RIA (Biotrend).

| influence on basal cGMP levels (basal, without SNP) | effect on stimulation of rhsGC with SNP (simultaneous incubation with ODQ and SNP) | SMILES | increase of cGMP content (10 μM YC-1 for 2 minutes) | increase of cGMP content (100 μM YC-1, compared with 10 μM YC-1) | cGMP levels compared to stimulation with SNP alone (YC-1 simultaneously with 100 μM SNP) |
| --- | --- | --- | --- | --- | --- |
| did not have an influence | inhibited | O=c1onc2cnc3ccccc3n12 [ODQ, 1H-[1,2,4]oxadiazolo[4,3,-a]chinoxalin-1-on] | – | – | – |
| – | – | OCc1ccc(-c2nn(Cc3ccccc3)c3ccccc23)o1 [YC-1, 3-(5′-hydroxymethyl-2′-furyl)-1-benzylindazol] | 3.4 fold | the same effect | doubled |
